# Test results from BindingDB's records for doi:10.7270/Q2P26WT9 (The Scripps Research Institute Molecular Screening Center, 2014).
# Biological target: T1, RNA-editing ligase 1, mitochondrial (Trypanosoma brucei brucei, UniProt P86926)
# T1 sequence (P86926 whole entry): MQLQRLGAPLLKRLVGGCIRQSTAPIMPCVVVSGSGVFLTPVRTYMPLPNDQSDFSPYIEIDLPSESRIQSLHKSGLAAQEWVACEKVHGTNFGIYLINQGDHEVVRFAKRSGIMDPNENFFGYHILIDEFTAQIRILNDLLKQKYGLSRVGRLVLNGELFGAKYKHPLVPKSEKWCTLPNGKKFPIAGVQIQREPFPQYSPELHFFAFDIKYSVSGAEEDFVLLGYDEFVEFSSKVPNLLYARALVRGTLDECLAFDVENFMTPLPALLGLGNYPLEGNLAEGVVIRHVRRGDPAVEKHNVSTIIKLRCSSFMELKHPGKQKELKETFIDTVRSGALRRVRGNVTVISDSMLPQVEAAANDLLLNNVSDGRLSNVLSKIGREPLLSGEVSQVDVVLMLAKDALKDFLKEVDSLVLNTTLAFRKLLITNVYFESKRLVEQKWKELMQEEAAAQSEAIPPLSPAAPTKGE
# Experiment: TbREL1 ligase inhibitors, dose response, biochemical, fluorescence, Trypanosoma brucei (AID 1117295)
row,Compound,IC50 [µM]
1,NC(=NNC=c1ccc(=C2C=CC(=O)C(C(=O)O)=C2)o1)N[N+](=O)[O-] [5-(5-{2-[amino(nitroimino)methyl]carbonohydrazonoyl}-2-furyl)-2-hydroxybenzoic acid],21.2
2,"COc1ccc(Cn2c(Nc3cc(Cl)ccc3OC)c3[nH]cccc-3c2=O)cc1 [7-[(5-chloranyl-2-methoxy-phenyl)amino]-6-[(4-methoxyphenyl)methyl]-7H-pyrrolo[3,4-b]pyridin-5-one]",16.1
3,"Oc1ccccc1CN=Nc1cc(N2CCCC2)nc(N2CCCC2)n1 [(6E)-6-[[[2,6-bis(1-pyrrolidinyl)-4-pyrimidinyl]hydrazo]methylidene]-1-cyclohexa-2,4-dienone]",> 96.6
